Measured values published in patent US8343925B2, “Composition for improving brain function and method for improving brain function” (Calpis Co., Ltd., priority 2009, dated 2013).

What was measured:
[1] = molecular target: angiotensin-converting enzyme (ACE) (Homo sapiens, UniProt P12821); settings: cited from earlier work
[2] = test system: increase in blood pressure due to cold stress; settings: oral administration; cited from earlier work
[3] = test system: scopolamine-induced amnesia; assay: Y-shaped maze test of spontaneous alternation behavior, scopolamine-induced amnesia; type: in vivo; settings: male ddY mice, scopolamine 1 mg/kg s.c. 30 min before test
Method: Male mice (n=15) of the ddY strain (approximately 7-week old) were used, and they took food and water ad lib. Test substances used were 9.0 mg/kg weight of Ile-Pro-Pro. The test substances were administered to the mice once orally 60 minutes before the execution of a Y-shaped maze test for evaluation of spontaneous alternation behavior. Further, 30 minutes before the execution of the Y-shaped maze test, 1 mg/kg weight of scopolamine was subcutaneously administered on the backs of the mice in order to induce brain dysfunction (dysmnesia and/or cognitive impairment) in the mice. In the Y-shaped maze test, a Y-shaped maze was used as an experimental device, in which the length of each arm was 40 cm, the height of the wall was 12 cm, the width of the floor was 3 cm, and the width of the upper part was 10 cm, and three arms were connected to each other at an angle of 120 degrees. Each of the mice was placed at the tip of any one of the arms of the Y-shaped maze, and then let go to freely explore in the maze for 8 minutes. The sequence of the arms each of the mice entered was recorded. The number of entries by each of the mice for each of the arms during the measurement time was counted to be the total number of entries. […] The percentage of spontaneous alternation behavior was calculated by dividing the number of spontaneous alternation behavior by a number obtained by subtracting 2 from the total number of entries, and multiplying a resultant number by 100. […] The measured values were expressed in the form of mean±standard error for each group. A significant difference between the control group and the scopolamine control group was calculated using Student's t-test.
Male mice (n=15) of the ddY strain (approximately 7-week old) were used, and they took food and water ad lib. […] The arms each of the mice entered were sequentially recorded. The number of entries by each of the mice for each of the arms during the measurement time was counted to be the total number of entries. […]

blood pressure = settings: oral administration; cited from earlier work
[4] = 10 mg/kg weight once orally 60 min before test

Chain of angiotensin-converting enzyme (ACE) (P12821 30-1306, species assumed): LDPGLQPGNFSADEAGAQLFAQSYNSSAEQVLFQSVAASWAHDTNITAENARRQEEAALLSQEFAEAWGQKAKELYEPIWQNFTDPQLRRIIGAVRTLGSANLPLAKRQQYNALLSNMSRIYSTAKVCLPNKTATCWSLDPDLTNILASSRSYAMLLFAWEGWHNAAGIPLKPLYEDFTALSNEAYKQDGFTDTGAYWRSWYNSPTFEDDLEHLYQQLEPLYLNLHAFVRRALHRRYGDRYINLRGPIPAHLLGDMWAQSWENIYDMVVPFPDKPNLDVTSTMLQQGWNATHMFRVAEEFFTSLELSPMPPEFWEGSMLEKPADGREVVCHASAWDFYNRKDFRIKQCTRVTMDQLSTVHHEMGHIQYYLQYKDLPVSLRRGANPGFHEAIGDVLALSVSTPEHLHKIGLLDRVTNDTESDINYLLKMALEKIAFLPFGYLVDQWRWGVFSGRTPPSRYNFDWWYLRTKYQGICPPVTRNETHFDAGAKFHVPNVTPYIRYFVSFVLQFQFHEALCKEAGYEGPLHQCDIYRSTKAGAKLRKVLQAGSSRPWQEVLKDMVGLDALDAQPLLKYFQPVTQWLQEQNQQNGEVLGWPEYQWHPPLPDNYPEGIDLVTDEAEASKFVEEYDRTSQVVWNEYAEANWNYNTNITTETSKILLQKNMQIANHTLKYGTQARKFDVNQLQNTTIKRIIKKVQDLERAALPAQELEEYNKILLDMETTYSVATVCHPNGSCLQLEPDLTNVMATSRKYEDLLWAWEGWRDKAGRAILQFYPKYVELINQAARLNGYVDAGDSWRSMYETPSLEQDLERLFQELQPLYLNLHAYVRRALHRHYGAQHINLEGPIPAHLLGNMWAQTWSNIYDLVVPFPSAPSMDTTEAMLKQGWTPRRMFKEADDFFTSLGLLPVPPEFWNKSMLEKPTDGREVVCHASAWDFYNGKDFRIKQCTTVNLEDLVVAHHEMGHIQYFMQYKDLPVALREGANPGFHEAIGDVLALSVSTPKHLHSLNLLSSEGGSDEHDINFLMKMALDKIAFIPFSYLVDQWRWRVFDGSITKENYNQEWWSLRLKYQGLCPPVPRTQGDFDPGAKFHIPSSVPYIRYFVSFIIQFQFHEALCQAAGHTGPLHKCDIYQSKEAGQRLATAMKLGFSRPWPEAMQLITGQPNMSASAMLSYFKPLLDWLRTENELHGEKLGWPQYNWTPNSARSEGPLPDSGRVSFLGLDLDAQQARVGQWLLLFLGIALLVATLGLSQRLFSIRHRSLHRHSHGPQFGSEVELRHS

Substance | ACE inhibitory activity [1] | inhibitory activities on increase in blood pressure due to cold stress or on decrease in markers of immune function [2] | prophylactic activity against amnesia (percentage of spontaneous alternation behavior) ([3]; 9.0 mg/kg weight once orally 60 min before test) | hypotensive activity (blood pressure) | prophylactic activity against amnesia (percentage of spontaneous alternation behavior) [3, 4]
Ile-Pro-Pro | has an ACE inhibitory activity | exhibit inhibitory activities on increase in blood pressure due to cold stress | had a prophylactic activity against amnesia | hypotensive lowering activity | –
Leu-Pro-Pro | – | – | – | – | had a prophylactic activity against amnesia
Ser-Pro-Pro | – | – | – | – | had a prophylactic activity against amnesia
Val-Pro-Pro [Val-Pro-Pro (VPP), reference compound] | – | exhibit inhibitory activities on increase in blood pressure due to cold stress | – | – | –
